*1 amine or outer side, *2 acyl side, *3 side chain or, on linkers, in order; H or OH if unused. Where a SMILES comes first, the peptide text is derived from it. Bridges are numbered along the chain shown (N, C = ends). Roman numbers before positions name the chains, in order. [ ]: non-standard residue; d: D form. Actinocin(9to1) = Cc1c2oc3c(C)ccc(C(=O)[*:1])c3nc-2c(C(=O)[*:2])c(N)c1=O; NMeV = CN[C@H](C(=O)O)C(C)C; Sar = CNCC(=O)O

Consider two compounds from patent US20020128438A1, “DNA cassette for the production of secretable recombinant trimeric TRAIL proteins, tetracycline/ doxycycline-inducible adeno-associated virus vector, their combination and use in gene therapy” (priority 2000, published 2002).

Series [1] concerns various cancer cell lines.
Series [2] deals with mice. As to conditions: systemic delivery; cited from earlier work.
Series [3] has as its system monkey. As to conditions: cited from earlier work.

Take `Cc1c2oc3c(C)ccc(C(=O)N[C@@H]4C(=O)N[C@H](C(C)C)C(=O)N5CCC[C@H]5C(=O)N(C)CC(=O)N(C)[C@@H](C(C)C)C(=O)O[C@@H]4C)c3nc-2c(C(=O)N[C@@H]2C(=O)N[C@H](C(C)C)C(=O)N3CCC[C@H]3C(=O)N(C)CC(=O)N(C)[C@@H](C(C)C)C(=O)O[C@@H]2C)c(N)c1=O` [ActD, Actinomycin D] (I: T[dV]P[Sar][NMeV] / II: T[dV]P[Sar][NMeV]; ester I:1-I:C, II:1-II:C; linker I:N-II:N via Actinocin(9to1)): the “concentration at which enhancing activity of ActD was obtained” value in series [1] (enhancement of TRAIL-induced apoptosis) is 100 ng/mL. Besides, the “effect of ActD on TRAIL-induced apoptosis” value in series [1] (various cancer cell lines) is recorded as “greatly enhanced”.

Consider “TRAIL: TNF family member, type II transmembrane apoptosis-inducing ligand”, for which the cytotoxicity in mice entry in series [2] was “no detectable cytotoxicity”. Moreover, the cytotoxicity in monkey result in series [3] is “no detectable cytotoxicity”.
